Source: patent US20220287938A1, “COSMETIC COMPOSITION COMPRISING EUTECTIC MIXTURE” (LG HOUSEHOLD & HEALTH CARE LTD., priority 2019, published 2022)

Tests used:
back skin of a pig = experiment: Keratin exfoliation effect on pig back skin (exfoliated keratin counted with cell counter)
Procedure: In order to confirm the keratin exfoliation effect of the aqueous eutectic mixture solution by the serine concentration of Example 2, the back skin of a pig was treated with the aqueous solution. Specifically, a 6-mm diameter sample with a thickness of 1 mm was taken from the back skin of the pig using a biopsy tool. After the sample was placed on a 96-well plate and washed once with phosphate buffered saline (PBS), 100 μl of the aqueous eutectic mixture solution of Example 2 was added thereto. In this case, to compare the keratin exfoliation effects, 100 μl of Comparative Example 4, a solution containing serine and malic acid, was added to the back skin of a pig in the same manner as described above. After the pig's back skin sample treated with each aqueous solution was stored under conditions of a temperature of 37° C. and humidity of 50% for 16 hours, the keratin exfoliation effect was confirmed by measuring the number of exfoliated keratin with a cell counter. In this case, a sample to which water was added was used as a negative control, a sample to which 10% gluconolactone (polyhydroxy acid, PHA) with a pH of 4, which is a known keratin exfoliating substance, was added was used as a first positive control, and a sample to which 10% gluconolactone with a pH of 6 was added was used as a second positive control. In the case of the second positive control, the keratin exfoliation effect was evaluated based on the condition that the efficacy was 15 to 20% compared to the first positive control. Here, the first positive control is applied as a reference for comparing the values between the actual experimental examples, and a relative keratin exfoliation value (%) was calculated and described as [(result value of sample)/(value of first positive control group)×100]. […]
Furthermore, it was confirmed whether the eutectic mixture was dissociated by observing the properties of a cosmetic (essence) including the eutectic mixture of Example 12, which was allowed to stand under separation conditions of the eutectic composition (Table 27) and confirming changes in melting point through measurement by differential scanning calorimetry (DSC) (Table 28) and the keratin exfoliation effect (Table 29), of the cosmetic. […] The melting point is expressed as a heat flow with respect to the sample in the DSC, and its accuracy is known to be 0.01° C. The melting point was measured in a pure nitrogen atmosphere, nitrogen was fed into a measuring chamber at a rate of 20 cc/min in order to maintain the nitrogen atmosphere, and the temperature of the chamber was set so as to increase by 10° C. per minute. The mass of the measured sample was confirmed by subtracting the weight of a pan for accommodating the sample in the DSC from the weight including the entire sample. […]

HaCaT cells = experiment: Scratch wound healing (skin regeneration promotion); type: cell-based, human
Procedure: HaCaT cells, which are a human-derived keratinocyte cell line, were cultured under conditions of 37° C. and 5% CO2 using a DMEM medium (ADDEXBIO TECHNOLOGIES, San Diego, Calif., USA) supplemented with 10% fetal bovine serum (Gibco, Waltham, Mass., USA), […] and […]. After the cultured cells were seeded into a 24-well plate so as to have 2.0×10^5 cells per well, and then cultured for 24 hours, the cells were washed once with PBS, and scratches having a perpendicular line shape were created on the center of the plate by scraping the cells with a 200 μl pipet tip. The cells were washed twice with PBS to remove the dropped cell debris, and the medium was replaced with a […] DMEM containing each test material. In order to always capture the same part when the cells were photographed, the center of the well was marked with a fine marker and the cell photograph of the marked part was taken at the same time at the start of the experiment (0 hours). The cell photographs after 2, 4 and 24 hours were also taken in the same way. After a scratch area created on monolayer cells was measured from the photographs after 0 hours and 24 hours using an image analysis program (Image J), the area filled with the scratch area was shown as a wound healing percentage (%) according to the following General Formula 1.

human fibroblasts = experiment: Total amount of collagen produced (PICP EIA kit); type: cell-based; conditions: for Average absorbance: 450 nm, number of repeats=3; for Collagen increase rate (%): relative to control (no additive)
Procedure: The total amount of collagen was quantified using a PICP kit (Procollagen Type I C-Peptide Enzyme ImmunoAssay KIT).
Specifically, after each sample was added to the culture medium of human fibroblasts and cultured for 1 day, the culture medium was taken, and a degree of increase in the total amount of collagen at each concentration was measured at 450 nm using a spectrophotometer with the PICP EIA kit.

[1] = Skin permeability on pig skin (serine quantified by liquid chromatography); type: in vitro ADME; conditions: pH 6.0 (mixtures adjusted to weakly acidic using citric acid); serine 5 parts by weight
Procedure: 10 μg of each of the aqueous solutions of Comparative Examples 1 and 2 and Example 1 were prepared and applied to pig skin having a uniform area. A tissue soaked with phosphate buffered saline (PBS) was placed on a 6-well plate and stored with the pig skin placed on the tissue under conditions of a temperature of 37° C. and a humidity of 50% for 12 hours. Then, the sample that could not penetrate the skin was removed using a cotton swab and a keratin tape, and the weight of the pig skin was measured. After the pig skin was crushed using a homogenizer, the amino acid and the eutectic mixture in the sample were sufficiently dissolved by adding 1 ml of water thereto, and then the resulting solution was centrifuged at 12,000 rpm for 10 minutes. After centrifugation, 0.5 ml of the supernatant was collected, and the serine concentration of the sample, which would be the amount permeated through the skin, was quantified using liquid chromatography with standard samples, and then transmittance was obtained by dividing the quantified concentration by the weight of the pig skin and comparing this to the initially introduced serine mass, as serine amount per gram of the tissue. The results of the skin permeability are illustrated in FIG. 2.
The skin permeability of the eutectic mixture prepared in Experimental Example 12 was confirmed. […]

O=C1O[C@H](CO)[C@@H](O)[C@H](O)[C@H]1O [PHA, gluconolactone]
Keratin exfoliation relative value (%) (back skin of a pig; pH 4.0, 10% gluconolactone, first positive control (reference = 100)): 100% | Keratin exfoliation relative value (%) (back skin of a pig; pH 4.0, first positive control (reference = 100)): 100% | Keratin exfoliation relative value (%) (back skin of a pig; pH 6.0 (mixtures adjusted to weakly acidic using citric acid)): 25.5% | Keratin exfoliation relative value (%) (back skin of a pig; pH 6.0, 10% gluconolactone, second positive control): 18.8%

N[C@@H](CCC(=O)O)C(=O)O [Glu, glutamic acid]
Wound healing percentage (%) after 24 hours (HaCaT cells; 1 ppm): 70.1% | Average absorbance (human fibroblasts; 10 ppm, cultured for 1 day): 2.240 | Collagen increase rate (%) (human fibroblasts; 10 ppm): 10.0%

N[C@@H](CO)C(=O)O [Serine, serine]
Skin permeability relative value (Maximum value converted to 100%) [1]: 71.7%

TGF-β
Average absorbance (human fibroblasts; 10 ng/ml (positive control)): 2.335 | Collagen increase rate (%) (human fibroblasts; 10 ng/ml (positive control)): 14.7%

N=C(N)NCCC[C@H](N)C(=O)O [Arg, arginine]
Wound healing percentage (%) after 24 hours (HaCaT cells; 10 ppm (mixtures based on the concentration of arginine)): 73.5% | Average absorbance (human fibroblasts; 10 ppm, cultured for 1 day): 2.429 | Collagen increase rate (%) (human fibroblasts; 10 ppm): 19.3%
